In patent US4031239A, “Cyclopropanecarboxylates for systemic control of ectoparasites” (American Cyanamid Company, priority 1975, dated 1977):

Legend:
Stomoxys calcitrans = experiment: Animal systemic insecticidal activity, flies fed on mice dosed by gavage (Example 3); format: in vivo, Stomoxys calcitrans (stable flies) fed on mice; conditions: 18 hours feeding, mortality at 24 hours
Method: To determine the effectiveness of the compounds of the invention as animal systemic insecticidal agents, test compounds are mixed in 10% acetone-90% sesame oil and administered by gavage to mice each at 25, 100 and/or 400 mg/kg of animal body weight.
Adult, one day old, unfed flies Stomoxys calcitrans are then exposed to the mice for 18 hours to permit them to feed on said mice. Mortality counts are made at 24 hours and data obtained are reported below as percent control of stable flies.

Rhipicephalus sanguineus = experiment: Systemic ixodicidal activity, daily oral dosing of tick-infested guinea pigs (Example 1); format: in vivo
Excerpt: (§1) Albino guinea pigs are housed individually and fed guinea pig chow and water ad libitum. One leaf of cabbage per day is also given to each guinea pig.
The diet employed in these tests is as follows:
Crude protein not less than 18.0%
Crude fat not less than 4.0%
Crude fiber not more than 16.0%
Added minerals not more than 3.5%
and consists of the following ingredients: Ground wheat, ground yellow corn, dried skimmed milk, soybean meal, dehydrated alfalfa meal, cane molasses, wheat middlings, animal fat preserved with BHA, vitamin B12 supplement; riboflavin supplement, cholin chloride, calcium pantothenate, thiamin, niacin, folic acid, ascorbic acid, vitamin A supplement, D activated sterol (source of Vitamin D3), methionine hydroxy analogue calcium, pyridoxine hydrochloride, vitamin E supplement, dicalcium phosphate, calcium carbonate, iodized salt, copper oxide sulfate, iron sulfate, iron oxide, manganous oxide, cobalt carbonate, zinc oxide.
(§2) To the shaved back of each guinea pig, a capsule made from a 2 inch spud gasket, with the base ground down to provide greater flexibility, is glued using 3M adhesive no. 8001. Five male and five female adult Rhipicephalus sanguineus ticks are placed inside the capsule and allowed to attach to the guinea pig. A gauze material is fastened over the top of the gasket to prevent the ticks from escaping.
(§3) The guinea pigs are given a daily oral dose by gelatin capsule of either 400 or 100 mg per kilogram body weight of the test compound. […]

Dermacentor variabilis = experiment: Systemic ixodicidal activity, daily oral dosing of tick-infested guinea pigs (Example 2); format: in vivo
[1] = tested on: Rhipicephalus sanguineus; Dermacentor variabilis; experiment: Systemic ixodicidal activity by the methods of the Examples, stated for both tick species together; format: in vivo; conditions: trans and cis; no figures given
Excerpt: as §1, §2, §3

[2] = Rhipicephalus sanguineus, in Cavia porcellus, po, read-out: % Tick Mortality

| SMILES | % Control of Stable Flies (Stomoxys calcitrans; 25 mg/kg by gavage) | % Control of Stable Flies (Stomoxys calcitrans; 100 mg/kg by gavage) | % Control of Stable Flies (Stomoxys calcitrans; 400 mg/kg by gavage) | other results |
| --- | --- | --- | --- | --- |
| CC1(C)C(C=C(Cl)Cl)C1C(=O)OC(C#N)c1cccc(Oc2ccccc2)c1 (stereo not shown) | 63% | 80% | 96% |  |
| CC(C)=CC1C(C(=O)OC(C#N)c2cccc(Oc3ccccc3)c2)C1(C)C (stereo not shown) | 30% | 80% | 100% |  |
| CC1(C)C(C=C(Cl)Cl)C1C(=O)OCc1cccc(Oc2ccccc2)c1 (mixture of isomers) [Cyclopropanecarboxylic acid, 3-(2,2-dichlorovinyl)-2,2-dimethyl-m-phenoxybenzyl ester] |  |  |  | mortality at 100 mg/kg (Rhipicephalus sanguineus; [2]): 80%; mortality at 400 mg/kg (Rhipicephalus sanguineus; [2]): 100%; time after initial treatment during which ticks do not appear to be affected (then moribund and die shortly thereafter) (Rhipicephalus sanguineus; daily oral dose 400 or 100 mg/kg, guinea pigs, slight color changes and some reduction in size excepted): about 3 days |
| CC1(C)C(C=C(Cl)Cl)C1C(=O)OCc1cccc(Oc2ccccc2)c1 (stereo not shown) [Cyclopropanecarboxylic acid, 3-(2,2-dichlorovinyl)-2,2-dimethyl-, m-phenoxybenzyl ester] |  |  |  | susceptibility of ticks to the test compound (Dermacentor variabilis; Dermacentor variabilis, compared with Example 1 (Rhipicephalus sanguineus)): somewhat less susceptible; mortality at 100 mg/kg (Dermacentor variabilis; Dermacentor variabilis, in Cavia porcellus, daily oral dose 100 mg/kg, guinea pigs): 0%; mortality at 400 mg/kg (Dermacentor variabilis; Dermacentor variabilis, in Cavia porcellus, daily oral dose 400 mg/kg, guinea pigs): 80%; time after which ticks become moribund and die shortly thereafter (Dermacentor variabilis; method of Example 1, daily oral dose, guinea pigs): about 5 days |
| CC(C)=CC1C(C(=O)OCc2cccc(Oc3ccccc3)c2)C1(C)C (stereo not shown) [cyclopropanecarboxylic acid, 2,2-dimethyl-3-(2-methylpropenyl)-m-phenoxybenzyl ester] |  |  |  | ixodicidal results compared with those in the Examples [1]: Results comparable to those in the Examples |
| CC1(C)C(C=C(Cl)Cl)C1C(=O)OCc1cccc(Oc2ccccc2)c1 (stereo not shown) [drawing 8] | 36% | 100% |  |  |
